Each structure is given as a SMILES string.

The text below walks through data of patent US8933113B2 (Merck Sharp & Dohme Corp., priority 2011, dated 2015).

This assay concerns the target T1, full-length human Mineralocorticoid Receptor (MR) (Homo sapiens, UniProt P08235).
T1 construct: host or cells: PathHunter CHO-K1 cells
T1 sequence (P08235 1-984): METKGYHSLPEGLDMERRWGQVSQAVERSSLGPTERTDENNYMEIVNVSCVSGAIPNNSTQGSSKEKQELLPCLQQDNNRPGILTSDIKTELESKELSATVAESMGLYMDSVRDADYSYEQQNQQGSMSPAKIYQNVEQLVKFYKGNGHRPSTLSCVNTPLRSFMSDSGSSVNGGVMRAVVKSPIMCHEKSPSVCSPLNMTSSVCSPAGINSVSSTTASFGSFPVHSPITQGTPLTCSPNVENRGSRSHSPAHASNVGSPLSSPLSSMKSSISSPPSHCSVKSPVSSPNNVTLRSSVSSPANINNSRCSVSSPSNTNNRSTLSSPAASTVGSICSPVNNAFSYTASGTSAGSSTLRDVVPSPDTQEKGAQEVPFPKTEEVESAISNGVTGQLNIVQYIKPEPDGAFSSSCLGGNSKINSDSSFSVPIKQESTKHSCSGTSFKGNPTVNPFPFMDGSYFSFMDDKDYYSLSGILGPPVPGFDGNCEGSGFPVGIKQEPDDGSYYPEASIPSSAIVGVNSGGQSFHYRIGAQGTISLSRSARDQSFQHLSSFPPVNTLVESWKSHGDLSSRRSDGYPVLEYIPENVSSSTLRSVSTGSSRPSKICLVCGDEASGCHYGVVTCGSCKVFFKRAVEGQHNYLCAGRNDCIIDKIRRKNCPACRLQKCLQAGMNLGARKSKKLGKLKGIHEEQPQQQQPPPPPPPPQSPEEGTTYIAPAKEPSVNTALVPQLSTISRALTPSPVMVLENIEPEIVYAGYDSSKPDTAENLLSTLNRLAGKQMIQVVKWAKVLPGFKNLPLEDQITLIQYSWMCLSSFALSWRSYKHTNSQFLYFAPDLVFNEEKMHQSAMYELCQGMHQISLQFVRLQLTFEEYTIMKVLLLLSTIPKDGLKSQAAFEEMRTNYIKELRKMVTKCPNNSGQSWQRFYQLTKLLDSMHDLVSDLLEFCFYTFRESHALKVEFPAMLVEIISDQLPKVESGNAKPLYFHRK
Kind of assay: human MR NH Pro assay (PathHunter Protein:Protein interaction assay), MR antagonist activity. The format is cell-based. The conditions noted are these: PathHunter CHO-K1 cells overexpressing human MR; aldosterone about 0.3 nM; 6 hours at 37° C.; luminescence; read-out: Primary Assay IP rating (IP = inflection point for a given dose-response titration curve). The essentials:
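PathHunter enzyme-complementation assay in cells of full-length human MR recruitment of a coactivator peptide, run in antagonist mode against aldosterone at about 0.3 to 1.0 nM final. Compounds are in a 10-point, 1:3 series from a 4.4 mM top. Incubation is 6 h at 37° C, then detection reagent for 1 h at RT, with a luminescence read-out.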

On to `CCC(C(C)=O)(c1ccc(Cl)cc1)n1ccc2c(NS(C)(=O)=O)cc(F)cc21` (stereo not shown) [Compound 98, N-(1-(3-(4-chlorophenyl)-2-oxopentan-3-yl)-6-fluoro-1H-indol-4-yl)methanesulfonamide], for which the IC50 is below 100 nM.

As for `CCC(C(C)=O)(c1ccc(Cl)cc1)n1ccc2c(NS(C)(=O)=O)cccc21` (stereo not shown) [Compound 99, N-(1-(3-(4-chlorophenyl)-2-oxopentan-3-yl)-1H-indol-4-yl)methanesulfonamide], the IC50 is below 100 nM.

Regarding `CCC(C(C)=O)(c1ccc(Cl)cc1)n1ncc2c(NS(=O)(=O)NC)cccc21` (stereo not shown) [Compound 105], the IC50 was below 100 nM.

As for `CCC(c1ccc(Cl)cc1Cl)(C(C)O)n1ccc2c(NS(C)(=O)=O)cccc21` (stereo not shown) [Compound 110, N-(1-(3-(2,4-dichlorophenyl)-2-hydroxypentan-3-yl)-1H-indol-4-yl)methanesulfonamide], the IC50 was below 100 nM.

With `CCC(c1ccc(Cl)cc1)(C(C)O)n1ncc2c(NS(=O)(=O)NC)cccc21` (stereo not shown) [Compound 118], the IC50 was below 100 nM.

`CCC(c1ccc(Cl)cc1)(C(C)O)n1ncc2c(NS(=O)(=O)N(C)C)cccc21` (stereo not shown) [Compound 119, 3-(1-(3-(4-chlorophenyl)-2-hydroxypentan-3-yl)-1H-indazol-4-yl)-1,1-dimethyl-sulfonylurea]: the IC50 is below 100 nM.

`CCC(c1ccc(Cl)cc1)(C1CC1C#N)n1ncc2c(NS(C)(=O)=O)cccc21` (stereo not shown) [Compound 120, N-(1-(1-(4-chlorophenyl)-1-(2-cyanocyclopropyl)propyl)-1H-indazol-4-yl)methanesulfonamide]: the IC50 was below 100 nM.

`CCC(CC#N)(c1ccc(C(F)(F)F)cc1)n1ccc2c(NS(C)(=O)=O)cccc21` (stereo not shown) [Compound 126, N-(1-(1-cyano-2-(4-(trifluoromethyl)phenyl)butan-2-yl)-1H-indol-4-yl)methanesulfonamide]: the IC50 was below 100 nM.

Regarding `CCC(/C=C/C#N)(c1ccc(Cl)cc1)n1ccc2c(NS(C)(=O)=O)cccc21` (stereo not shown) [Compound 127, (E)-N-(1-(3-(4-chlorophenyl)-1-cyanopent-1-en-3-yl)-1H-indol-4-yl)methanesulfonamide], the IC50 is below 100 nM.

Regarding `CCC(/C=C/C#N)(c1ccc(OC)cc1)n1ccc2c(NS(C)(=O)=O)cccc21` (stereo not shown) [Compound 128, (E)-N-(1-(1-cyano-3-(4-methoxyphenyl)pent-1-en-3-yl)-1H-indol-4-yl)methanesulfonamide], the IC50 was below 100 nM.

For the molecule `CCC(/C=C/C#N)(c1ccc(Cl)cc1)n1ncc2c(NS(C)(=O)=O)cccc21` (stereo not shown) [Compound 129, (E)-N-(1-(3-(4-chlorophenyl)-1-cyanopent-1-en-3-yl)-1H-indazol-4-yl)methanesulfonamide], the IC50 was below 100 nM.

For the molecule `CCC(/C=C/C#N)(c1ccc(Cl)cc1)n1ncc2c(NS(C)(=O)=O)cc(F)cc21` (stereo not shown) [Compound 130, (E)-N-(1-(3-(4-chlorophenyl)-1-cyanopent-1-en-3-yl)-6-fluoro-1H-indazol-4-yl)methanesulfonamide], the IC50 was below 100 nM.

Take `CCC(/C(C)=C/C#N)(c1ccc(Cl)cc1)n1ccc2c(NS(C)(=O)=O)cccc21` (stereo not shown) [Compound 132, N-(1-(3-(4-Chlorophenyl)-1-cyano-2-methylpent-1-en-3-yl)-1H-indol-4-yl)methanesulfonamide]: the IC50 is below 100 nM.

With `CCC(/C=C/C#N)(c1ccc(Cl)cc1)n1ncc2c(N)cccc21` (stereo not shown) [Compound 133, (E)-4-(4-amino-1H-indazol-1-yl)-4-(4-chlorophenyl)hex-2-enenitrile], the IC50 was in the range of 100 to 500 nM.

In the case of `CCC(/C=C/C#N)(c1ccc(Cl)cc1)n1ncc2c(N)cc(F)cc21` (stereo not shown) [Compound 134, (E)-4-(4-amino-6-fluoro-1H-indazol-1-yl)-4-(4-chlorophenyl)hex-2-enenitrile], the IC50 is 100 to 500 nM.

Take `CCC(/C=C/C#N)(c1ccc(Cl)cc1)n1ncc2c(N(C(=O)OC(C)(C)C)S(C)(=O)=O)cccc21` (stereo not shown) [Compound 135, (E)-tert-butyl 1-(3-(4-chlorophenyl)-1-cyanopent-1-en-3-yl)-1H-indazol-4-yl(methylsulfonyl) carbamate]: the IC50 is below 100 nM.

Regarding `CCC(/C=C/C#N)(c1ccc(Cl)cc1)n1ncc2c(N(S(C)(=O)=O)S(C)(=O)=O)cc(F)cc21` (stereo not shown) [Compound 136, (E)-N-(1-(3-(4-chlorophenyl)-1-cyanopent-1-en-3-yl)-6-fluoro-1H-indazol-4-yl)-N-(methylsulfonyl)methanesulfonamide], the IC50 was below 100 nM.

`CCC(CCC#N)(c1ccc(OC)cc1)n1ccc2c(NS(C)(=O)=O)cccc21` (stereo not shown) [Compound 139, N-(1-(1-cyano-3-(4-methoxyphenyl)pentan-3-yl)-1H-indol-4-yl)methanesulfonamide]: the IC50 was below 100 nM.

Regarding `CCC(CCC#N)(c1ccccc1)n1ncc2c(NS(C)(=O)=O)cc(F)cc21` (stereo not shown) [Compound 144, N-(1-(1-cyano-3-phenylpentan-3-yl)-6-fluoro-1H-indazol-4-yl)methanesulfonamide], the IC50 is below 100 nM.

Consider `CCC(CCC#N)(c1ccc(Cl)cc1)n1ncc2c(NS(C)(=O)=O)cc(F)cc21` (stereo not shown) [Compound 145, N-(1-(3-(4-chlorophenyl)-1-cyanopentan-3-yl)-6-fluoro-1H-indazol-4-yl)methanesulfonamide], for which the IC50 was below 100 nM.

As for `CCC(C1=C(C#N)CCO1)(c1ccc(Cl)cc1)n1ccc2c(NS(C)(=O)=O)cccc21` (stereo not shown) [Compound 147, N-(1-(1-(4-Chlorophenyl)-1-(3-cyano-4,5-dihydrofuran-2-yl)propyl)-1H-indol-4-yl)methane-sulfonamide], the IC50 is 100 to 500 nM.

Take `CCC(C(=O)NCC#N)(c1ccc(Cl)cc1)n1ccc2c(NS(C)(=O)=O)cccc21` (stereo not shown) [Compound 149, 2-(4-chlorophenyl)-N-(cyanomethyl)-2-(4-(methylsulfonamido)-1H-indol-1-yl)butanamide]: the IC50 was below 100 nM.

Take `CCn1ncc(C(CC)(c2ccc(Cl)cc2)n2ccc3c(NS(C)(=O)=O)cccc32)n1` (stereo not shown) [Compound 152, N-(1-(1-(4-chlorophenyl)-1-(2-ethyl-2H-1,2,3-triazol-4-yl)propyl)-1H-indol-4-yl)methanesulfonamide]: the IC50 is below 100 nM.

For `CCC(C(=O)OC)(c1ccc(Cl)cc1)n1ccc2c(CCS(C)(=O)=O)cccc21` (stereo not shown) [Compound 153, Methyl 2-(4-chlorophenyl)-2-(4-(2-(methylsulfonyl)ethyl)-1H-indol-1-yl)butanoate], the IC50 was below 100 nM.

In the case of `CCC(c1ccc(Cl)cc1)(n1ccc2c(NS(C)(=O)=O)cccc21)C1(O)CC1` (stereo not shown) [Compound 154, N-(1-(1-(4-chlorophenyl)-1-(1-hydroxycyclopropyl)propyl)-1H-indol-4-yl)methanesulfonamide], the IC50 was below 100 nM.

As for `COC(=O)C(CCF)(c1ccc(Cl)cc1)n1ccc2c(NS(C)(=O)=O)cccc21` (stereo not shown) [Compound 156, methyl 2-(4-chlorophenyl)-4-fluoro-2-(4-(methylsulfonamido)-1H-indol-1-yl)butanoate], the IC50 was below 100 nM.

On to `CCC(c1ccc(Cl)cc1)(c1nc(C(N)=O)no1)n1ncc2c(NS(C)(=O)=O)cccc21` (stereo not shown) [Compound 157, 5-(1-(4-chlorophenyl)-1-(4-(methylsulfonamido)-1H-indazol-1-yl)propyl)-1,2,4-oxadiazole-3-carboxamide], for which the IC50 is 100 to 500 nM.

For the molecule `CCC(c1ccc(Cl)cc1)(c1nc(C#N)no1)n1ncc2c(NS(C)(=O)=O)cccc21` (stereo not shown) [Compound 158, N-(1-(1-(4-chlorophenyl)-1-(3-cyano-1,2,4-oxadiazol-5-yl)propyl)-1H-indazol-4-yl)methane sulfonamide], the IC50 is below 100 nM.

In the case of `CCC(CC(F)(F)F)(c1ccc(Cl)cc1)n1ncc2c(NS(C)(=O)=O)cccc21` (stereo not shown) [Compound 159, N-(1-(3-(4-chlorophenyl)-1,1,1-trifluoropentan-3-yl)-1H-indazol-4-yl)methanesulfonamide], the IC50 was below 100 nM.

Regarding `CCC(CCOS(C)(=O)=O)(c1ccc(Cl)cc1)n1ccc2c(NS(C)(=O)=O)cccc21` (stereo not shown) [Compound 164, 3-(4-Chlorophenyl)-3-(4-(methylsulfonamido)-1H-indol-1-yl)pentyl methanesulfonate], the IC50 was below 100 nM.

Turning to `CCC(CCOC)(c1ccc(Cl)cc1)n1ccc2c(NS(C)(=O)=O)cccc21` (stereo not shown) [Compound 165, N-(1-(3-(4-Chlorophenyl)-1-methoxypentan-3-yl)-1H-indol-4-yl)methanesulfonamide], the IC50 is below 100 nM.
